Data as given in patent US20150344540A1, “NOVEL GLP-1 RECEPTOR AGONISTS WITH CHOLESTEROL EFFLUX ACTIVITY” (NOVO NORDISK A/S, priority 2012, published 2015).
Where a SMILES comes first, the peptide text is derived from it. [ ]: non-standard residue; d: D form. Aib = CC(C)(N)C(=O)O

Test system: Mouse monocyte/macrophage cell line, RAW 264.7
Test: Cholesterol efflux assay (3H-cholesterol, macrophage cell line)
Assay type: cell-based
Conditions: RAW 264.7, 4 hrs incubation, 0.1% human serum albumin; for 4 h Cholesterol Efflux Emax: ABCA1-mediated efflux; for EC50: read-out: 4 h Cholesterol Efflux EC50, ABCA1-mediated efflux (CPT-cAMP induced minus non-induced)

Compound	4 h Cholesterol Efflux Emax [%]	EC50 [nM]
CC[C@H](C)[C@H](NC(=O)[C@H](Cc1ccccc1)NC(=O)[C@H](CCC(=O)O)NC(=O)[C@H](CCCNC(=N)N)NC(=O)[C@@H](NC(=O)[C@H](C)NC(=O)[C@H](CCC(=O)O)NC(=O)[C@H](CCC(=O)O)NC(=O)[C@H](CCC(=O)O)NC(=O)[C@H](CCSC)NC(=O)[C@H](CCC(N)=O)NC(=O)[C@H](CCCCN)NC(=O)[C@H](CO)NC(=O)[C@H](CC(C)C)NC(=O)[C@H](CC(=O)O)NC(=O)[C@H](CO)NC(=O)[C@@H](NC(=O)[C@H](Cc1ccccc1)NC(=O)[C@@H](NC(=O)CNC(=O)[C@H](CCC(=O)O)NC(=O)C(C)(C)NC(=O)[C@@H](N)Cc1c[nH]cn1)[C@@H](C)O)[C@@H](C)O)C(C)C)C(=O)N[C@@H](CCC(=O)O)C(=O)N[C@@H](Cc1c[nH]c2ccccc12)C(=O)N[C@@H](CC(C)C)C(=O)N[C@@H](CCCCN)C(=O)N[C@@H](CC(N)=O)C(=O)N[C@@H](CCCCN)C(=O)NCC(=O)N[C@@H](CC(C)C)C(=O)N[C@@H](CCC(=O)O)C(=O)N[C@@H](Cc1ccccc1)C(=O)N[C@@H](CC(C)C)C(=O)N[C@@H](CCC(=O)O)C(=O)N[C@@H](CC(C)C)C(=O)N[C@@H](CC(C)C)C(N)=O [Compound 33, [Aib2,Glu21,Lys29,Leu31,Glu32,Phe33,Leu34,Glu35,Leu36,Leu371-Exendin-4-(1-37)-peptide amide] (H-H[Aib]EGTFTSDLSKQMEEEAVREFIEWLKNKGLEFLELL-NH2; N-terminus assumed)	87	–
CC[C@H](C)[C@H](NC(=O)[C@H](Cc1ccccc1)NC(=O)[C@H](CCC(=O)O)NC(=O)[C@H](CCCCN)NC(=O)[C@@H](NC(=O)[C@H](CCCCN)NC(=O)[C@H](CCC(=O)O)NC(=O)CNC(=O)[C@H](CCC(=O)O)NC(=O)[C@H](CC(C)C)NC(=O)[C@H](Cc1ccc(O)cc1)NC(=O)[C@H](CO)NC(=O)[C@H](CO)NC(=O)[C@@H](NC(=O)[C@H](CC(=O)O)NC(=O)[C@H](CO)NC(=O)[C@@H](NC(=O)[C@H](Cc1ccccc1)NC(=O)[C@@H](NC(=O)CNC(=O)[C@H](CCC(=O)O)NC(=O)C(C)(C)NC(=O)[C@@H](N)Cc1c[nH]cn1)[C@@H](C)O)[C@@H](C)O)C(C)C)C(C)C)C(=O)N[C@@H](CCC(=O)O)C(=O)N[C@@H](Cc1c[nH]cn1)C(=O)N[C@@H](CC(C)C)C(=O)N[C@H](C(=O)N[C@@H](CCC(=O)O)C(=O)N[C@@H](CCCCN)C(=O)NC(C)(C)C(=O)N[C@@H](CCCCN)C(=O)N[C@@H](CCC(=O)O)C(=O)N[C@@H](Cc1ccccc1)C(=O)N[C@@H](CC(C)C)C(N)=O)C(C)C [Compound 71, [Aib8,Glu23,Lys24,Val25,Glu30,His31,Glu34,Lys35,Aib36,Lys37]-GLP-1-(7-37)-peptidyl-Glu-Phe-Leu amide] (H-H[Aib]EGTFTSDVSSYLEGEKVKEFIEHLVEK[Aib]KEFL-NH2)	130	–
CC[C@H](C)[C@H](NC(=O)[C@H](Cc1ccccc1)NC(=O)[C@H](CCC(=O)O)NC(=O)[C@H](CCCCN)NC(=O)[C@@H](NC(=O)[C@H](C)NC(=O)[C@H](CCC(=O)O)NC(=O)[C@@H]1CCCN1C(=O)[C@H](CCC(=O)O)NC(=O)[C@H](CC(C)C)NC(=O)[C@H](Cc1ccc(O)cc1)NC(=O)[C@H](CO)NC(=O)[C@H](CO)NC(=O)[C@@H](NC(=O)[C@H](CC(=O)O)NC(=O)[C@H](CO)NC(=O)[C@@H](NC(=O)[C@H](Cc1ccccc1)NC(=O)[C@@H](NC(=O)CNC(=O)[C@H](CCC(=O)O)NC(=O)C(C)(C)NC(=O)[C@@H](N)Cc1c[nH]cn1)[C@@H](C)O)[C@@H](C)O)C(C)C)C(C)C)C(=O)N[C@@H](C)C(=O)N[C@@H](Cc1c[nH]c2ccccc12)C(=O)N[C@@H](CC(C)C)C(=O)N[C@H](C(=O)N[C@@H](CCC(=O)O)C(=O)N[C@@H](CCCCN)C(=O)NC(C)(C)C(=O)N[C@@H](CCCCN)C(=O)N[C@@H](CCC(=O)O)C(=O)N[C@@H](Cc1ccccc1)C(=O)N[C@@H](CC(C)C)C(N)=O)C(C)C [Compound 101, [Aib8,Pro22,Glu23,Val25,Glu34,Lys35,Aib36,Lys37]-GLP-1-(7-37)-peptidyl-Glu-Phe-Leu amide] (H-H[Aib]EGTFTSDVSSYLEPEAVKEFIAWLVEK[Aib]KEFL-NH2; N-terminus assumed)	92	280
CC[C@H](C)[C@H](NC(=O)[C@H](Cc1ccccc1)NC(=O)[C@H](CCC(=O)O)NC(=O)[C@H](CCCCN)NC(=O)[C@@H](NC(=O)[C@H](C)NC(=O)[C@H](CCC(=O)O)NC(=O)CNC(=O)[C@H](CCC(=O)O)NC(=O)[C@H](CC(C)C)NC(=O)[C@H](Cc1ccc(O)cc1)NC(=O)[C@H](CO)NC(=O)[C@H](CO)NC(=O)[C@@H](NC(=O)[C@H](CC(=O)O)NC(=O)[C@H](CO)NC(=O)[C@@H](NC(=O)[C@H](Cc1ccccc1)NC(=O)[C@@H](NC(=O)CNC(=O)[C@H](CCC(=O)O)NC(=O)C(C)(C)NC(=O)[C@@H](N)Cc1c[nH]cn1)[C@@H](C)O)[C@@H](C)O)C(C)C)C(C)C)C(=O)N[C@@H](C)C(=O)N[C@@H](Cc1c[nH]c2ccccc12)C(=O)N[C@@H](CC(C)C)C(=O)N[C@@H](CC(C)C)C(=O)N[C@@H](CCC(=O)O)C(=O)N[C@@H](CCCCN)C(=O)NC(C)(C)C(=O)N[C@@H](CCCCN)C(=O)N[C@@H](CCC(=O)O)C(=O)N[C@@H](Cc1c[nH]c2ccccc12)C(=O)N[C@@H](CC(C)C)C(N)=O [Compound 89, [Aib8,Glu23,Val25,Leu33,Glu34,Lys35,Aib36,Lys37]-GLP-1-(7-37)-peptidyl-Glu-Trp-Leu amide] (H-H[Aib]EGTFTSDVSSYLEGEAVKEFIAWLLEK[Aib]KEWL-NH2)	102	–
CC[C@H](C)[C@H](NC(=O)[C@H](Cc1ccccc1)NC(=O)[C@H](CCC(=O)O)NC(=O)[C@H](CCCCN)NC(=O)[C@@H](NC(=O)[C@H](C)NC(=O)[C@H](CCC(=O)O)NC(=O)CNC(=O)[C@H](CCC(=O)O)NC(=O)[C@H](CC(C)C)NC(=O)[C@H](Cc1ccc(O)cc1)NC(=O)[C@H](CO)NC(=O)[C@H](CO)NC(=O)[C@@H](NC(=O)[C@H](CC(=O)O)NC(=O)[C@H](CO)NC(=O)[C@@H](NC(=O)[C@H](Cc1ccccc1)NC(=O)[C@@H](NC(=O)CNC(=O)[C@H](CCC(=O)O)NC(=O)C(C)(C)NC(=O)[C@@H](N)Cc1c[nH]cn1)[C@@H](C)O)[C@@H](C)O)C(C)C)C(C)C)C(=O)N[C@@H](C)C(=O)N[C@@H](Cc1c[nH]c2ccccc12)C(=O)N[C@@H](CC(C)C)C(=O)N[C@H](C(=O)N[C@@H](CCC(=O)O)C(=O)N[C@@H](CCCCN)C(=O)N[C@@H](Cc1ccccc1)C(=O)N[C@@H](CCCCN)C(=O)N[C@@H](CCC(=O)O)C(=O)N[C@@H](Cc1ccccc1)C(=O)N[C@@H](Cc1ccccc1)C(N)=O)C(C)C [Compound 93, [Aib8,Glu23,Val25,Glu34,Lys35,Phe36,Lys37]-GLP-1-(7-37)-peptidyl-Glu-Phe-Phe amide] (H-H[Aib]EGTFTSDVSSYLEGEAVKEFIAWLVEKFKEFF-NH2)	113	–
CC[C@H](C)[C@H](NC(=O)[C@H](Cc1ccccc1)NC(=O)[C@H](CCC(=O)O)NC(=O)[C@H](CCCCN)NC(=O)[C@@H](NC(=O)[C@H](C)NC(=O)[C@H](CCC(=O)O)NC(=O)CNC(=O)[C@H](CCC(=O)O)NC(=O)[C@H](CC(C)C)NC(=O)[C@H](Cc1ccc(O)cc1)NC(=O)[C@H](CO)NC(=O)[C@H](CO)NC(=O)[C@@H](NC(=O)[C@H](CC(=O)O)NC(=O)[C@H](CO)NC(=O)[C@@H](NC(=O)[C@H](Cc1ccccc1)NC(=O)[C@@H](NC(=O)CNC(=O)[C@H](CCC(=O)O)NC(=O)C(C)(C)NC(=O)[C@@H](N)Cc1c[nH]cn1)[C@@H](C)O)[C@@H](C)O)C(C)C)C(C)C)C(=O)N[C@@H](C)C(=O)N[C@@H](Cc1c[nH]c2ccccc12)C(=O)N[C@@H](CC(C)C)C(=O)N[C@H](C(=O)N[C@@H](CCC(=O)O)C(=O)N[C@@H](CCCCN)C(=O)NC(C)(C)C(=O)N[C@@H](CCCCN)C(=O)N[C@@H](CCC(=O)O)C(=O)N[C@@H](Cc1ccccc1)C(=O)N[C@@H](Cc1c[nH]cn1)C(N)=O)C(C)C [Compound 22, [Aib8,Glu23,Val25,Glu34,Lys35,Aib36,Lys37]-GLP-1-(7-37)-peptidyl-Glu-Phe-His amide] (H-H[Aib]EGTFTSDVSSYLEGEAVKEFIAWLVEK[Aib]KEFH-NH2)	106	–
CC[C@H](C)[C@H](NC(=O)[C@H](Cc1ccccc1)NC(=O)[C@H](CCCCN)NC(=O)[C@H](CCCCN)NC(=O)[C@@H](NC(=O)[C@H](C)NC(=O)[C@H](CCC(=O)O)NC(=O)CNC(=O)[C@H](CCC(=O)O)NC(=O)[C@H](CC(C)C)NC(=O)[C@H](Cc1ccc(O)cc1)NC(=O)[C@H](CO)NC(=O)[C@H](CO)NC(=O)[C@@H](NC(=O)[C@H](CC(=O)O)NC(=O)[C@H](CO)NC(=O)[C@@H](NC(=O)[C@H](Cc1ccccc1)NC(=O)[C@@H](NC(=O)CNC(=O)[C@H](CCC(=O)O)NC(=O)C(C)(C)NC(=O)[C@@H](N)Cc1c[nH]cn1)[C@@H](C)O)[C@@H](C)O)C(C)C)C(C)C)C(=O)N[C@@H](C)C(=O)N[C@@H](Cc1c[nH]c2ccccc12)C(=O)N[C@@H](CC(C)C)C(=O)N[C@H](C(=O)N[C@@H](CCC(=O)O)C(=O)N[C@@H](CCCCN)C(=O)NC(C)(C)C(=O)N[C@@H](CCCCN)C(=O)N[C@@H](CCC(=O)O)C(=O)N[C@@H](Cc1ccccc1)C(=O)N[C@@H](CC(C)C)C(N)=O)C(C)C [Compound 51, [Aib8,Glu23,Val25,Lys27,Glu34,Lys35,Aib36,Lys37]-GLP-1-(7-37)-peptidyl-Glu-Phe-Leu amide] (H-H[Aib]EGTFTSDVSSYLEGEAVKKFIAWLVEK[Aib]KEFL-NH2; N-terminus assumed)	117	440
